Reference: ChEMBL document CHEMBL2057157, “Butyl pocket formation in the vitamin D receptor strongly affects the agonistic or antagonistic behavior of ligands” (J Med Chem, 2012)

Molecular target: T1, Vitamin D3 receptor (Homo sapiens, UniProt P11473)
T1 sequence (P11473 whole entry): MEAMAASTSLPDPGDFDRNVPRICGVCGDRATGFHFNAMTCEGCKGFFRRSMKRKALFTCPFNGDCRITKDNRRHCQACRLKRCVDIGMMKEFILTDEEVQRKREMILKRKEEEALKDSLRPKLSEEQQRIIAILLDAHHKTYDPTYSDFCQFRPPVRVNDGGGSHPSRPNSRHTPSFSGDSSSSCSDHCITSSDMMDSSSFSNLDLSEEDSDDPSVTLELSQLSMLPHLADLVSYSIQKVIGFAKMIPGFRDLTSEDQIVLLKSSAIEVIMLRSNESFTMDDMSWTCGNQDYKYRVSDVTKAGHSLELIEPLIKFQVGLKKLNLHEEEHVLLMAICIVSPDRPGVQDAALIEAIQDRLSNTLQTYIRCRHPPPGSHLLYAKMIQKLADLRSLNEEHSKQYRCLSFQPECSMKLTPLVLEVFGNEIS
Test: Displacement of [3H]1alpha,25-dihydroxyvitamin D3 from human recombinant GST-tagged vitamin D3 receptor LBD expressed in Escherichia coli BL21 after 16 hrs

`C=C1[C@H](O)CC(=C/C=C2\CCC[C@]3(C)[C@@H]([C@H](C)[C@@H](CC)CC(O)(CC)CC)CC[C@@H]23)C[C@H]1O` was tested, and the IC50 was 0.38 nM.
